Measured values as given in patent publication US20220296595A1, “CDK INHIBITORS” (QILU REGOR THERAPEUTICS INC., priority 2019, published 2022).
Where two headings read alike, the source gives them in different places.

How the values were obtained:
CDK6/CyclinD3 = target: T1, CDK6/CyclinD3 (Homo sapiens, UniProt Q00534); test: Assay for inhibition of CDK6/CyclinD3 (Caliper microfluidic kinase assay); assay type: biochemical
T1 construct: purchased Carna 04-107
How it was run: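 IC50s came from four-parameter dose-response fits of microfluidic substrate/product separation data. Reactions held 2 nM CDK6/CyclinD3, 300 μM ATP and 1 μM 5-FAM peptide FL-34 in pH 7.5 HEPES/MgCl2 buffer, ran 3 hours at room temperature, then were quenched with EDTA.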

T47D breast cancer cells = test: Anti-proliferation assay in T47D cell (Cyquant, day 6); assay type: cell-based, human; details: Homo sapiens, T47D, anti-proliferation, T47D cells; read-out: T47D IC50
How it was run: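 A ten-point, 3-fold compound series (10 μM down to 0.51 nM) was applied to overnight-settled cells in 10% FBS RPMI 1640, and DNA content was read by CyQuant fluorescence 6 days later. An untreated plate read before dosing served as baseline for subtraction before IC50 fitting.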

[1] = tested on: phosphorylation of Retinoblastoma Protein (pRb Ser807/811 or Ser780) in T47D cells; test: Inhibition of phosphorylation of retinoblastoma protein (pRb) in T47D cell (ELISA); assay type: cell-based, human; details: Homo sapiens, T47D, read-out: Phospho T47D Ser807 IC50, pRb Ser807 phosphorylation, T47D cells
How it was run: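 T47D cells in RPMI 1640 + 10% FBS, adhered overnight, then treated 24 h with 3-fold compound titrations (top concentration […]). Lysates assayed by sandwich ELISA for pRb Ser807/811 or Ser780 with HRP/TMB detection. IC50 from 4-parameter sigmoidal fit.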

CDK2/CyclinE1 = target: T2, CDK2/CyclinE1 (Homo sapiens, UniProt P24941); test: Assay for inhibition of CDK2/CyclinE1 (Caliper microfluidic kinase assay); assay type: biochemical; details: read-out: CDK2 IC50
T2 construct: purchased SignalChem C29-18G
How it was run: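 IC50 came from 4-parameter fits of substrate-to-product conversion, separated on a Caliper chip after an EDTA stop. Reactions ran 3 hours at room temperature with 100 μM ATP, 5 μM fluorescent FL-18 peptide and 5 nM enzyme in 100 mM HEPES pH 7.5, 10 mM MgCl2.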

CDK4/CyclinD1 = target: T3, CDK4/CyclinD1 (Homo sapiens, UniProt P11802); test: Assay for inhibition of CDK4/CyclinD1 (Caliper microfluidic kinase assay); assay type: biochemical
T3 construct: purchased Thermofisher PR8064A
T3 sequence (P11802 whole entry): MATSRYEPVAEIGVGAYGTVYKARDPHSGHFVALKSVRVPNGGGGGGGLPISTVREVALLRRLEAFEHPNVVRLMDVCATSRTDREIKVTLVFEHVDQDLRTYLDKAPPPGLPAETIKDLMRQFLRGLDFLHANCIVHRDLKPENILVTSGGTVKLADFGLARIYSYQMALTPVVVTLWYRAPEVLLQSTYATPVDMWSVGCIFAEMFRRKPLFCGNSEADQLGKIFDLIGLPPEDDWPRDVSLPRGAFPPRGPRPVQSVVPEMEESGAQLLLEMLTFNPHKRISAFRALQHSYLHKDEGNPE
T3 sequence (P24385 whole entry partner): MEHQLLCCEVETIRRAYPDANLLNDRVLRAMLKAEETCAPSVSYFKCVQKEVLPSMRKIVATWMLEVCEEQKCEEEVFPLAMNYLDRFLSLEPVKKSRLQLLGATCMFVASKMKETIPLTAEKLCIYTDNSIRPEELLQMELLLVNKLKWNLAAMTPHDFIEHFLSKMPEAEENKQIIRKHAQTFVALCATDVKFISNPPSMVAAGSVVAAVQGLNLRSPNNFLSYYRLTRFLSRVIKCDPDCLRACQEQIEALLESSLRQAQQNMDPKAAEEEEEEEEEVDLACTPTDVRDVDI
How it was run: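 IC50 was obtained by 4-parameter sigmoidal fitting after 1 nM CDK4/CyclinD1, 200 μM ATP and 1 μM FL-34 substrate reacted for 3 h at room temperature (pH 7.5 HEPES, 10 mM MgCl2). After EDTA quench, substrate and product were separated and detected on a Caliper microfluidic chip.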

T1 sequence (Q00534 whole entry): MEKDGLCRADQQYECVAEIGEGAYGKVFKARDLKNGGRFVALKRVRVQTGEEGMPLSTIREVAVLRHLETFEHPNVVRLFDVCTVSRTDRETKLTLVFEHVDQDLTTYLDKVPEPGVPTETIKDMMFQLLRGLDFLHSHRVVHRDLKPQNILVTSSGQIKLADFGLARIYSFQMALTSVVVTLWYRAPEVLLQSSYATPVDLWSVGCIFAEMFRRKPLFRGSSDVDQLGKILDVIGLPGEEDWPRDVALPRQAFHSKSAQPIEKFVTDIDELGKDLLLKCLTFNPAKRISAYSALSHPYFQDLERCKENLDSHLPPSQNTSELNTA
T1 sequence (P30281 whole entry partner): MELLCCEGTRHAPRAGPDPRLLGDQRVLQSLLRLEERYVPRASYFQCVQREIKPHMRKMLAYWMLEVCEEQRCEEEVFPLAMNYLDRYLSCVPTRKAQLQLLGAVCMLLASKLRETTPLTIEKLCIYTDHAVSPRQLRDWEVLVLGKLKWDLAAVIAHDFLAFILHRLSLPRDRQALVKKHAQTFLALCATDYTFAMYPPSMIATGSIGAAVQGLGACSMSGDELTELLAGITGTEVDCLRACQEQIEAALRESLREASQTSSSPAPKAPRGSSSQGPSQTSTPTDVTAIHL

| SMILES | IC50 (CDK6/CyclinD3; CDK6/CyclinD3, 300 μM ATP) [nM] | IC50 (T47D breast cancer cells) [nM] | IC50 [1] [nM] | IC50 (CDK2/CyclinE1; CDK2/CyclinE1, 100 μM ATP) [nM] | IC50 (CDK4/CyclinD1; CDK4/CyclinD1, 200 μM ATP) [nM] | IC50 (CDK6/CyclinD3; CDK6/CyclinD3) [nM] | IC50 (CDK2/CyclinE1; CDK2/CyclinE1) [nM] | IC50 (CDK4/CyclinD1; CDK4/CyclinD1) [nM] |
| --- | --- | --- | --- | --- | --- | --- | --- | --- |
| CC(C)c1cnn2ccc(-c3nc(Nc4ccc(N5CCN(S(C)(=O)=O)CC5=O)cn4)ncc3F)cc12 [compound 51] | 10 to 100 | < 100 | < 100 | 10 to 100 | < 10 | – | – | – |
| CC(C)c1cnn2ccc(-c3nc(Nc4ccc(N5CCN(CC(F)(F)F)CC5=O)cn4)ncc3F)cc12 [compound 53] | 10 to 100 | 100 to 500 | < 100 | 10 to 100 | < 10 | – | – | – |
| CC(C)n1cnc2c(OC(F)F)nc(-c3ccnc(Nc4ccc(N5CCOCC5=O)cn4)n3)cc21 [compound 63] | – | 100 to 500 | < 100 | – | – | 10 to 100 | 100 to 1000 | < 10 |
| COc1nc(-c2ccnc(Nc3ccc(CN4CCC(C#N)CC4)cn3)n2)cc2c1ncn2C(C)C [compound 68] | – | 100 to 500 | < 100 | – | – | 10 to 100 | > 1000 | < 10 |
| COc1nc(-c2nc(Nc3ccc(N4CCC(N(C)C)CC4)cn3)ncc2F)cc2c1ncn2C(C)C [compound 70] | – | 100 to 500 | < 100 | – | – | 10 to 100 | > 1000 | < 10 |
| COc1nc(-c2nc(Nc3ccc(N4CCOCCC4=O)cn3)ncc2F)cc2c1nc(C)n2C(C)C [compound 73] | – | 500 to 1000 | < 100 | – | – | 10 to 100 | > 1000 | < 10 |
| COc1nc(-c2nc(Nc3ccc(N4CCCOCC4=O)cn3)ncc2F)cc2c1nc(C)n2C(C)C [compound 74] | – | 100 to 500 | 100 to 500 | – | – | 10 to 100 | > 1000 | < 10 |
| COc1nc(-c2ccnc(Nc3ccc(N4CCOCC4=O)cn3)n2)cc2c1nc(C)n2C(C)C [compound 77] | – | 100 to 500 | < 100 | – | – | 10 to 100 | 100 to 1000 | < 10 |
| COc1nc(-c2nc(Nc3ccc(N4CCOCC4=O)cn3)ncc2F)cc2c1ncn2C(C)C [compound 78] | – | < 100 | < 100 | – | – | 10 to 100 | 100 to 1000 | < 10 |
| COc1nc(-c2ccnc(Nc3ccc(C(=O)N4CCC(NC5CC5)C4)cc3)n2)cc2c1ncn2C(C)C (stereo not shown) [compound 80] | – | 100 to 500 | < 100 | – | – | 10 to 100 | < 10 | < 10 |
| COc1nc(-c2nc(Nc3ccc(N4CCOCC4=O)cn3)ncc2Cl)cc2c1nc(C)n2C(C)C [compound 83] | – | < 100 | < 100 | – | – | < 10 | 100 to 1000 | < 10 |
| COc1nc(-c2ccnc(Nc3ccc(N4CCC(N(C)C)CC4=O)cn3)n2)cc2c1ncn2C(C)C (stereo not shown) [compound 91] | – | < 100 | < 100 | – | – | < 10 | 100 to 1000 | < 10 |
| COc1nc(-c2nc(Nc3ccc(N4CCCCC4=O)cn3)ncc2F)cc2c1nc(C)n2C(C)C [compound 93] | – | 100 to 500 | 100 to 500 | – | – | 10 to 100 | > 1000 | < 10 |
| COc1nc(-c2nc(Nc3ccc(N4CCC(N(C)C)CC4)cn3)ncc2F)cc2c1nc(C)n2C(C)C [compound 94] | – | < 100 | 100 to 500 | – | – | 10 to 100 | > 1000 | < 10 |
| COc1nc(-c2nc(Nc3ccc(N4CCOCC4=O)cn3)ncc2F)cc2c1nc(C)n2C(C)C [compound 98] | – | < 100 | < 100 | – | – | 10 to 100 | > 1000 | < 10 |
| COc1nc(-c2ccnc(Nc3ccc(N4CCC(N5CC(F)C5)CC4=O)cn3)n2)cc2c1ncn2C(C)C (stereo not shown) [compound 99] | – | < 100 | < 100 | – | – | 10 to 100 | 100 to 1000 | < 10 |
| COc1nc(-c2nc(Nc3ccc(N4CCN(C)CC4)cn3)ncc2F)cc2c1nc(C)n2C(C)C [compound 103] | – | 100 to 500 | < 100 | – | – | 10 to 100 | > 1000 | 10 to 100 |
| COc1nc(-c2ccnc(Nc3ccc(N4CC5CC4CN5)cn3)n2)cc2c1ncn2C(C)C (stereo not shown) [compound 109] | 10 to 100 | < 100 | < 100 | > 1000 | < 10 | – | – | – |

| SMILES | IC50 (CDK6/CyclinD3; CDK6/CyclinD3, 300 μM ATP) [nM] | IC50 (T47D breast cancer cells) [nM] | IC50 [1] [nM] | IC50 (CDK2/CyclinE1; CDK2/CyclinE1, 100 μM ATP) [nM] | IC50 (CDK4/CyclinD1; CDK4/CyclinD1, 200 μM ATP) [nM] | IC50 (CDK6/CyclinD3; CDK6/CyclinD3) [nM] | IC50 (CDK2/CyclinE1; CDK2/CyclinE1) [nM] | IC50 (CDK4/CyclinD1; CDK4/CyclinD1) [nM] |
| --- | --- | --- | --- | --- | --- | --- | --- | --- |
| COc1nc(-c2nc(Nc3ccc(N4CCNCC4=O)cc3F)ncc2F)cc2c1ncn2C(C)C [compound 111] | 10 to 100 | 100 to 500 | 100 to 500 | 10 to 100 | < 10 | – | – | – |
| COc1nc(-c2nc(Nc3ccc(N4CCNCCC4=O)cn3)ncc2F)cc2c1nc(C)n2C(C)C [compound 112] | 10 to 100 | < 100 | 100 to 500 | > 1000 | < 10 | – | – | – |
| COc1nc(-c2nc(Nc3ccc(N4CCCNCC4=O)cn3)ncc2F)cc2c1nc(C)n2C(C)C [compound 113] | 10 to 100 | 100 to 500 | 100 to 500 | 100 to 1000 | < 10 | – | – | – |
| COc1nc(-c2nc(Nc3ccc(N4CCNCC4=O)c(F)c3)ncc2F)cc2c1ncn2C(C)C [compound 115] | 10 to 100 | 100 to 500 | 100 to 500 | 10 to 100 | < 10 | – | – | – |
| COc1nc(-c2ccnc(Nc3ccc(N4CCNCC4=O)c(F)c3)n2)cc2c1ncn2C(C)C [compound 116] | 10 to 100 | 100 to 500 | < 100 | 10 to 100 | < 10 | – | – | – |
| COc1nc(-c2ccnc(Nc3ccc(N4CCC(C)(N)C4)cn3)n2)cc2c1ncn2C(C)C (stereo not shown) [compound 117] | 10 to 100 | 100 to 500 | 100 to 500 | > 1000 | 10 to 100 | – | – | – |
| COc1nc(-c2ccnc(Nc3ccc(N4CCC(C)(N)CC4)cn3)n2)cc2c1ncn2C(C)C [compound 118] | 10 to 100 | 100 to 500 | < 100 | > 1000 | < 10 | – | – | – |
| COc1nc(-c2ccnc(Nc3ccc(N4CCN(CCF)CC4=O)cn3)n2)cc2c1ncn2C(C)C [compound 122] | 10 to 100 | < 100 | < 100 | 100 to 1000 | < 10 | – | – | – |
| COc1nc(-c2ccnc(Nc3ccc(N4CCN(CCF)CC4)cn3)n2)cc2c1ncn2C(C)C [compound 123] | 10 to 100 | 100 to 500 | 100 to 500 | > 1000 | < 10 | – | – | – |
| COc1nc(-c2nc(Nc3ccc(N4CCN(CCF)CC4=O)cn3)ncc2F)cc2c1ncn2C(C)C [compound 126] | 10 to 100 | 100 to 500 | 100 to 500 | 100 to 1000 | < 10 | – | – | – |
| COc1nc(-c2nc(Nc3ccc(N4CCN(C5COC5)CC4=O)cn3)ncc2F)cc2c1ncn2C(C)C [compound 129] | 10 to 100 | 100 to 500 | < 100 | > 1000 | < 10 | – | – | – |
| COc1nc(-c2nc(Nc3ccc(N4CCN(C5COC5)CC4=O)cn3)ncc2F)cc2c1nc(C)n2C(C)C [compound 131] | 10 to 100 | 100 to 500 | 100 to 500 | > 1000 | < 10 | – | – | – |
| CCN1CCN(c2ccc(Nc3ncc(F)c(-c4cc5c(ncn5C(C)C)c(OC)n4)n3)nc2)C(=O)C1 [compound 132] | 10 to 100 | 100 to 500 | < 100 | > 1000 | < 10 | – | – | – |
| CC(C)c1cnn2ccc(-c3ccnc(Nc4ccc(N5CC(N(C)C)CCC5=O)cn4)n3)cc12 (stereo not shown) [compound 156] | 100 to 1000 | 100 to 500 | < 100 | 10 to 100 | 10 to 100 | – | – | – |
| CC(C)c1cnn2ccc(-c3ccnc(Nc4ccc(N5CCCC(N(C)C)C5=O)cn4)n3)cc12 (stereo not shown) [compound 157] | 10 to 100 | < 100 | < 100 | 100 to 1000 | < 10 | – | – | – |
| CC(C)c1cnn2ccc(-c3nc(Nc4ccc(N5CCC(N6CC(F)(F)C6)CC5=O)cn4)ncc3F)cc12 (stereo not shown) [compound 158] | 10 to 100 | < 100 | < 100 | 10 to 100 | < 10 | – | – | – |
| CC(C)c1cnn2ccc(-c3nc(Nc4ccc(N5CCC(NC6CC(F)(F)C6)CC5=O)cn4)ncc3F)cc12 (stereo not shown) [compound 159] | 10 to 100 | < 100 | < 100 | 10 to 100 | < 10 | – | – | – |
